Measured values: US20170334899A1, “AMINO-SUBSTITUTED ISOTHIAZOLES” (Bayer Pharma Aktiengesellschaft, priority 2014, published 2017)

Target: T1, CDK2/CycE (Homo sapiens, UniProt P24941)
T1 construct: GST; purchased ProQinase GmbH (Freiburg, Germany); host or cells: insect cells (Sf9)
Assay: CDK2/CycE kinase assay (TR-FRET)
Assay type: biochemical
Conditions: avg, read-out: CDK2 avg (IC50 [mol/l])
How it was run: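 GST-tagged human CDK2 and CycE from Sf9 cells, preincubated 15 min with compound, then 25 min at 22° C. with 10 μM ATP and 0.75 μM biotinylated Rb-derived peptide (final). Phospho-substrate read by TR-FRET (anti-pRB pSer807/pSer811, Eu anti-mouse IgG, streptavidin-XL665), 665/620 nm ratio, normalised to no-inhibitor and no-enzyme controls.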

SMILES	IC50 [µM]
Cc1nsc(Nc2cnc(C(F)(F)F)cn2)c1C(=O)Nc1ccc(F)c(OCCCN(C)CCC(F)(F)F)c1 [Example 303, N-(4-fluoro-3-{3-[methyl(3,3,3-trifluoropropyl)amino]propoxy}phenyl)-3-methyl-5-{[5-(trifluoromethyl)pyrazin-2-yl]amino}-1,2-thiazole-4-carboxamide]	≥ 20
Cc1nsc(Nc2cncc(C(F)(F)F)n2)c1C(=O)Nc1ccc(OC2CCN(CCC(F)(F)F)CC2)nc1 [Example 304, 3-methyl-5-{[6-(trifluoromethyl)pyrazin-2-yl]amino}-N-(6-{[1-(3,3,3-trifluoropropyl)piperidin-4-yl]oxy}pyridin-3-yl)-1,2-thiazole-4-carboxamide]	> 20
Cc1nsc(Nc2cnc(C(F)(F)F)cn2)c1C(=O)Nc1ccc(OCCNCC(F)F)nc1 [Example 305, N-(6-{2-[(2,2-difluoroethyl)amino]ethoxy}pyridin-3-yl)-3-methyl-5-{[5-(trifluoromethyl)pyrazin-2-yl]amino}-1,2-thiazole-4-carboxamide]	≥ 20
Cc1nsc(Nc2cnc(C(F)(F)F)cn2)c1C(=O)Nc1ccc(F)c(OCCCNCC(F)(F)F)c1 [Example 306, N-(4-fluoro-3-{3-[(2,2,2-trifluoroethyl)amino]propoxy}phenyl)-3-methyl-5-{[5-(trifluoromethyl)pyrazin-2-yl]amino}-1,2-thiazole-4-carboxamide]	≥ 20
Cc1nsc(Nc2cnc(C(F)(F)F)cn2)c1C(=O)Nc1ccc(F)c(OCCCNCCC(F)(F)F)c1 [Example 307, N-(4-fluoro-3-{3-[(3,3,3-trifluoropropyl)amino]propoxy}phenyl)-3-methyl-5-{[5-(trifluoromethyl)pyrazin-2-yl]amino}-1,2-thiazole-4-carboxamide]	≥ 20
Cc1nsc(Nc2cnc(C(F)(F)F)cn2)c1C(=O)Nc1ccc(F)c(OCC2CCN(CC(F)F)CC2)c1 [Example 308, N-(3-{[1-(2,2-difluoroethyl)piperidin-4-yl]methoxy}-4-fluorophenyl)-3-methyl-5-{[5-(trifluoromethyl)pyrazin-2-yl]amino}-1,2-thiazole-4-carboxamide]	≥ 20
Cc1nsc(Nc2cnc(C(F)(F)F)cn2)c1C(=O)Nc1ccc(F)c(OCC2CCN(CCF)CC2)c1 [Example 309, N-(4-fluoro-3-{[1-(2-fluoroethyl)piperidin-4-yl]methoxy}phenyl)-3-methyl-5-{[5-(trifluoromethyl)pyrazin-2-yl]amino}-1,2-thiazole-4-carboxamide]	≥ 20
Cc1nsc(Nc2cnc(C(F)(F)F)cn2)c1C(=O)Nc1ccc(F)c(OCC2CCN(CC(F)(F)F)CC2)c1 [Example 310, N-(4-fluoro-3-{[1-(2,2,2-trifluoroethyl)piperidin-4-yl]methoxy}phenyl)-3-methyl-5-{[5-(trifluoromethyl)pyrazin-2-yl]amino}-1,2-thiazole-4-carboxamide]	≥ 20
Cc1nsc(Nc2cnc(C(F)(F)F)cn2)c1C(=O)Nc1ccc(F)c(OCC2CCN(CCC(F)(F)F)CC2)c1 [Example 311, N-(4-fluoro-3-{[1-(3,3,3-trifluoropropyl)piperidin-4-yl]methoxy}phenyl)-3-methyl-5-{[5-(trifluoromethyl)pyrazin-2-yl]amino}-1,2-thiazole-4-carboxamide]	> 20
Cc1nsc(Nc2cnc(C(F)(F)F)cn2)c1C(=O)Nc1ccc(F)c(OCC2CCN(C(CF)CF)CC2)c1 [Example 312, N-(3-{[1-(1,3-difluoropropan-2-yl)piperidin-4-yl]methoxy}-4-fluorophenyl)-3-methyl-5-{[5-(trifluoromethyl)pyrazin-2-yl]amino}-1,2-thiazole-4-carboxamide]	≥ 20
Cc1nsc(Nc2cnc(C(F)(F)F)cn2)c1C(=O)Nc1ccc(OC2CCN(C(CF)CF)C2)nc1 (stereo not drawn) [Example 313, N-(6-{[1-(1,3-difluoropropan-2-yl)pyrrolidin-3-yl]oxy}pyridin-3-yl)-3-methyl-5-{[5-(trifluoromethyl)pyrazin-2-yl]amino}-1,2-thiazole-4-carboxamide]	≥ 20
Cc1nsc(Nc2cnc(C(F)(F)F)cn2)c1C(=O)Nc1ccc(F)c(OC2CCN(CC(F)F)C2)c1 (stereo not drawn) [Example 314, N-(3-{[1-(2,2-difluoroethyl)pyrrolidin-3-yl]oxy}-4-fluorophenyl)-3-methyl-5-{[5-(trifluoromethyl)pyrazin-2-yl]amino}-1,2-thiazole-4-carboxamide]	≥ 20
Cc1nsc(Nc2cnc(C(F)(F)F)cn2)c1C(=O)Nc1ccc(F)c(OC2CCN(CC(F)(F)F)C2)c1 (stereo not drawn) [Example 315, N-(4-fluoro-3-{[1-(2,2,2-trifluoroethyl)pyrrolidin-3-yl]oxy}phenyl)-3-methyl-5-{[5-(trifluoromethyl)pyrazin-2-yl]amino}-1,2-thiazole-4-carboxamide]	≥ 20
Cc1nsc(Nc2cnc(C(F)(F)F)cn2)c1C(=O)Nc1ccc(F)c(OCC2CCN(CC(F)F)C2)c1 (stereo not drawn) [Example 316, N-(3-{[1-(2,2-difluoroethyl)pyrrolidin-3-yl]methoxy}-4-fluorophenyl)-3-methyl-5-{[5-(trifluoromethyl)pyrazin-2-yl]amino}-1,2-thiazole-4-carboxamide]	≥ 20
Cc1nsc(Nc2cnc(C(F)(F)F)cn2)c1C(=O)Nc1ccc(F)c(OCC2CCN(CCF)C2)c1 (stereo not drawn) [Example 317, N-(4-fluoro-3-{[1-(2-fluoroethyl)pyrrolidin-3-yl]methoxy}phenyl)-3-methyl-5-{[5-(trifluoromethyl)pyrazin-2-yl]amino}-1,2-thiazole-4-carboxamide]	> 20
Cc1nsc(Nc2cnc(C(F)(F)F)cn2)c1C(=O)Nc1ccc(F)c(OCC2CCN(C(CF)CF)C2)c1 (stereo not drawn) [Example 320, N-(3-{[1-(1,3-difluoropropan-2-yl)pyrrolidin-3-yl]methoxy}-4-fluorophenyl)-3-methyl-5-{[5-(trifluoromethyl)pyrazin-2-yl]amino}-1,2-thiazole-4-carboxamide]	≥ 20
Cc1nsc(Nc2cnc(C(F)(F)F)cn2)c1C(=O)Nc1ccc(OCCNCCF)nc1 [Example 321, N-(6-{2-[(2-fluoroethyl)amino]ethoxy}pyridin-3-yl)-3-methyl-5-{[5-(trifluoromethyl)pyrazin-2-yl]amino}-1,2-thiazole-4-carboxamide]	≥ 20
Cc1nsc(Nc2cnc(C(F)(F)F)cn2)c1C(=O)Nc1ccc(OCCNCC(F)(F)F)nc1 [Example 322, 3-methyl-N-(6-{2-[(2,2,2-trifluoroethyl)amino]ethoxy}pyridin-3-yl)-5-{[5-(trifluoromethyl)pyrazin-2-yl]amino}-1,2-thiazole-4-carboxamide]	≥ 20
